Experimental data as given in paper PMC8445441, “Elucidating the mechanism by which synthetic helper peptides sensitize Pseudomonas aeruginosa to multiple antibiotics” (PLoS Pathogens, 2021).
Like-named read-outs stand apart in the source and are kept apart here.

Key:
P. aeruginosa AUMC-Pa-3 = test: microbe, parasite or virus in culture
How it was run: (§1)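 MICs were determined by CLSI broth microdilution in MHB, in triplicate: two-fold drug dilutions were mixed 1:1 with bacterial suspension of ~1 × 10^6 CFU/mL and incubated 18 h at 37 °C. The MIC was the lowest concentration with no visible growth.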

P. aeruginosa AUMC-Pa-4 = test: microbe, parasite or virus in culture
How it was run: as §1

P. aeruginosa AUMC-Pa-5 = test: microbe, parasite or virus in culture; settings: strain AUMC-Pa-5
How it was run: as §1

P. aeruginosa AUMC-Pa-6 = test: microbe, parasite or virus in culture
How it was run: as §1

P. aeruginosa PAO1 = test: microbe, parasite or virus in culture; settings: for FICI / MICac: the MIC for the antibiotic in the combination: S3 Table, PAO1
How it was run: as §1

P. aeruginosa ATCC27853 = test: microbe, parasite or virus in culture; parameters: MICa: MIC of the antibiotic / MICac: MIC of the antibiotic in the combination: unit not given beside the values
Protocol: (§2) The MIC tests were performed in triplicate using broth microdilution in accordance with Clinical and Laboratory Standards Institute (CLSI) recommendations (http://iacld.ir/DL/public/CLSI-2018-M100-S28.pdf). Briefly, drugs were two-fold diluted in MHB and mixed with an equal volume of bacterial suspensions containing approximately 1 × 10^6 CFU/mL in 96-well microliter plate. After 18 h incubation at 37 °C, the MIC values were defined as the lowest concentrations of antibiotics with no visible growth of bacteria. […] Otherwise, 1/4 MIC of the peptide was used in the combination. […] If needed, membrane compounds PG, PE, PC, CL or LPS, or membrane stabilizers MgCl2 or CaCl2, or efflux pumps inhibitor PAβN were added to the broth medium to clarify the effect of other substances on the synergy between peptide and antibiotics. All the tests were performed in triplicate.
(§3) The fractional inhibitory concentration (FIC) indices were calculated using the previously described formula FICI = FICa + FICb = MICac/MICa + MICbc/MICb. The FICI was interpreted according to EUCAST [65] as follows: synergistic, FICI≤0.5; additive, 0.5<FICI≤1; indifferent, 1<FICI<2; antagonistic, FICI ≥2. For the FICI calculations, twice the highest concentration tested was used in the cases where the MIC was not reached.

P. aeruginosa NR-31040 = test: microbe, parasite or virus in culture; parameters: MICa: MIC of the antibiotic / MICac: MIC of the antibiotic in the combination: unit not given beside the values; settings: strain NR-31040
Protocol: as §2, §3

P. aeruginosa NR-31041 = test: microbe, parasite or virus in culture; parameters: MICa: MIC of the antibiotic / MICac: MIC of the antibiotic in the combination: unit not given beside the values
Protocol: as §2, §3

P. aeruginosa PA14 = test: microbe, parasite or virus in culture; parameters: MICa: MIC of the antibiotic / MICac: MIC of the antibiotic in the combination: unit not given beside the values; settings: strain PA14
Protocol: as §2, §3

P. aeruginosa PAK = test: microbe, parasite or virus in culture; parameters: MICa: MIC of the antibiotic / MICac: MIC of the antibiotic in the combination: unit not given beside the values
Protocol: as §2, §3

P. aeruginosa HM-214 = settings: strain HM-214; antibiotic + D-11 (MICb/MICbc 128/4)
Protocol: as §2, §3

P. aeruginosa AUMC-Pa-1 = settings: strain AUMC-Pa-1; antibiotic + D-11 (MICb/MICbc 128/4)
Protocol: as §2, §3

P. aeruginosa AUMC-Pa-2 = settings: strain AUMC-Pa-2; antibiotic + D-11 (MICb/MICbc 64/4)
Protocol: as §2, §3

[1] = test system: clinical P. aeruginosa isolates; test: microbe, parasite or virus in culture; settings: Pseudomonas aeruginosa, 18 h
How it was run: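 Broth microdilution per CLSI in MHB, two-fold drug dilutions mixed with an equal volume of bacteria at about 1 × 10^6 CFU/mL. After 18 h at 37 °C, MIC taken as the lowest concentration with no visible growth; run in triplicate.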

[2] = antibiotic alone, unit not given
[3] = with D-11 at MICbc 4, unit not given
[4] = antibiotic + D-11 (MICb/MICbc 128/4)

## CO[C@@H]1[C@@H](OC(=O)c2ccc(C)[nH]2)[C@@H](O)[C@H](Oc2ccc3c(O)c(NC(=O)c4ccc(O)c(CC=C(C)C)c4)c(=O)oc3c2Cl)OC1(C)C [Chlorobiocin]
P. aeruginosa AUMC-Pa-3; Pseudomonas aeruginosa, AUMCPA3, 18 h, read-out: MICa: MIC of the antibiotic
  MIC: 0.5 µM
P. aeruginosa AUMC-Pa-3; strain AUMC-Pa-3, antibiotic + D-11 (MICb/MICbc 128/4)
  FICI: 1.031
P. aeruginosa AUMC-Pa-3; strain AUMC-Pa-3, with D-11 at MICbc 4, unit not given
  MICac: MIC of the antibiotic in the combination: 0.5/0.5
P. aeruginosa AUMC-Pa-4; Pseudomonas aeruginosa, AUMCPA4, 18 h, read-out: MICa: MIC of the antibiotic
  MIC: 0.25 µM
P. aeruginosa AUMC-Pa-4; strain AUMC-Pa-4, antibiotic + D-11 (MICb/MICbc 128/4)
  FICI: 2.031
P. aeruginosa AUMC-Pa-4; strain AUMC-Pa-4, with D-11 at MICbc 4, unit not given
  MICac: MIC of the antibiotic in the combination: 0.5
P. aeruginosa AUMC-Pa-5; antibiotic + D-11 (MICb/MICbc 64/4)
  FICI: 2.063
P. aeruginosa AUMC-Pa-5; [2]
  MICa: MIC of the antibiotic: 1
P. aeruginosa AUMC-Pa-5; [3]
  MICac: MIC of the antibiotic in the combination: 2
P. aeruginosa AUMC-Pa-6; Pseudomonas aeruginosa, AUMCPA6, 18 h, read-out: MICa: MIC of the antibiotic
  MIC: 0.25 µM
P. aeruginosa AUMC-Pa-6; strain AUMC-Pa-6, antibiotic + D-11 (MICb/MICbc 64/4)
  FICI: 1.063
P. aeruginosa AUMC-Pa-6; strain AUMC-Pa-6, with D-11 at MICbc 4, unit not given
  MICac: MIC of the antibiotic in the combination: 0.25/0.25
P. aeruginosa PAO1; Pseudomonas aeruginosa, PAO1, 18 h, read-out: MICa: the MIC of antibiotics
  MIC: 0.5 µM
P. aeruginosa PAO1; antibiotic + 2 μM D-11
  FICI: 0.313
P. aeruginosa PAO1; antibiotic + 4 μM D-11
  FICI: 0.375
P. aeruginosa PAO1; with 2 μM D-11
  MICac: the MIC for the antibiotic in the combination: 0.125 µM
P. aeruginosa PAO1; with 4 μM D-11
  MICac: the MIC for the antibiotic in the combination: 0.125 µM
P. aeruginosa ATCC27853; Pseudomonas aeruginosa, ATCC27853, 18 h, read-out: MICa: MIC of the antibiotic
  MIC: 0.5 µM
P. aeruginosa ATCC27853; strain ATCC27853, antibiotic + D-11 (MICb/MICbc 32/4)
  FICI: 1.125
P. aeruginosa ATCC27853; strain ATCC27853, with D-11 at MICbc 4, unit not given
  MICac: MIC of the antibiotic in the combination: 0.5/0.5
P. aeruginosa NR-31040; [4]
  FICI: 1.031
P. aeruginosa NR-31040; [2]
  MICa: MIC of the antibiotic: 1/1
P. aeruginosa NR-31040; [3]
  MICac: MIC of the antibiotic in the combination: 1/1
P. aeruginosa NR-31041; Pseudomonas aeruginosa, NR31041, 18 h, read-out: MICa: MIC of the antibiotic
  MIC: 1 µM
P. aeruginosa NR-31041; strain NR-31041, antibiotic + D-11 (MICb/MICbc 64/4)
  FICI: 0.563
P. aeruginosa NR-31041; strain NR-31041, with D-11 at MICbc 4, unit not given
  MICac: MIC of the antibiotic in the combination: 0.5
P. aeruginosa PA14; [4]
  FICI: 1.031
P. aeruginosa PA14; [2]
  MICa: MIC of the antibiotic: 1/1
P. aeruginosa PA14; [3]
  MICac: MIC of the antibiotic in the combination: 1/1
P. aeruginosa PAK; Pseudomonas aeruginosa, 18 h, read-out: MICa: MIC of the antibiotic
  MIC: 0.5 µM
P. aeruginosa PAK; strain PAK, antibiotic + D-11 (MICb/MICbc 64/4)
  FICI: 1.063
P. aeruginosa PAK; strain PAK, with D-11 at MICbc 4, unit not given
  MICac: MIC of the antibiotic in the combination: 0.5/0.5
P. aeruginosa HM-214
  FICI: 1.031
P. aeruginosa AUMC-Pa-1
  FICI: 1.031
P. aeruginosa AUMC-Pa-2
  FICI: 2.063
[1]; read-out: Antibiotic sensibility (MIC) of clinical P. aeruginosa isolate AUMC-Pa-1
  MIC: 4 µM
[1]; read-out: Antibiotic sensibility (MIC) of clinical P. aeruginosa isolate AUMC-Pa-2
  MIC: 0.25 µM
[1]; read-out: Antibiotic sensibility (MIC) of clinical P. aeruginosa isolate AUMC-Pa-3
  MIC: 0.5 µM
[1]; read-out: Antibiotic sensibility (MIC) of clinical P. aeruginosa isolate AUMC-Pa-4
  MIC: 0.25 µM
[1]; read-out: Antibiotic sensibility (MIC) of clinical P. aeruginosa isolate AUMC-Pa-5
  MIC: 1 µM
[1]; read-out: Antibiotic sensibility (MIC) of clinical P. aeruginosa isolate AUMC-Pa-6
  MIC: 0.25 µM
[1]; read-out: Antibiotic sensibility (MIC) of clinical P. aeruginosa isolate HM-214
  MIC: 1 µM
[1]; read-out: Antibiotic sensibility (MIC) of clinical P. aeruginosa isolate NR-31040
  MIC: 1 µM
[1]; read-out: Antibiotic sensibility (MIC) of clinical P. aeruginosa isolate NR-31041
  MIC: 1 µM
